Results: patent publication US20200017496A1 (priority 2017, published 2020)
Read-outs that look alike come from different tables or passages of the source.

Experiments:
[1] = system: Enterobacter cloacae (ECL) isolates; assay: MIC of compounds alone and combined with antibacterials, broth microdilution (CLSI); assay type: cell-based; details: for MIC: Enterobacter cloacae
How it was run: (§1)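 Compound MIC, and antibacterial MIC at each fixed compound level, taken by visual inspection as lowest concentration stopping growth. Inoculum: log-phase bacteria, final 5·10^5 CFU/mL, cation-adjusted Mueller-Hinton broth; 16-20 h, 35° C, ambient air.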

[2] = system: Escherichia coli (ECO) isolates; assay: as above; assay type: cell-based
How it was run: as §1

With C=CC1=C(C(=O)O)N2C(=O)[C@@H](NC(=O)/C(=N\OCC(=O)O)c3csc(N)n3)[C@H]2SC1 [FIX, Cefixime] the “MIC ATB in combination” value ([1]; ECL UFR12, AF1 @ 4 μg/mL) was “<=0.25 μg/mL”, the “MIC ATB in combination” value ([1]; ECL UFR12, AF1 @ 8 μg/mL) was “<=0.25 μg/mL” and the “MIC ATB in combination” value ([1]; ECL UFR13, AF1 @ 4 μg/mL) was 8 µg/mL. For the same molecule, the “MIC ATB in combination” value ([1]; ECL UFR13, AF1 @ 8 μg/mL) was 8 µg/mL, the “MIC ATB in combination” value ([1]; ECL UFR14, AF1 @ 4 μg/mL) was 16 µg/mL and the “MIC ATB in combination” value ([1]; ECL UFR14, AF1 @ 8 μg/mL) was 8 µg/mL. For the same molecule, the “MIC ATB in combination” value ([1]; ECL UFR60, AF1 @ 4 μg/mL) was 4 µg/mL, the “MIC ATB in combination” value ([1]; ECL UFR60, AF1 @ 8 μg/mL) was 4 µg/mL and the “MIC ATB in combination” value ([1]; ECL UFR70, AF1 @ 4 μg/mL) was 16 µg/mL. For the same molecule, the “MIC ATB in combination” value ([1]; ECL UFR70, AF1 @ 8 μg/mL) was 2 µg/mL, the “MIC ATB in combination” value ([1]; ECL UFR84, AF1 @ 4 μg/mL) was 64 µg/mL and the “MIC ATB in combination” value ([1]; ECL UFR84, AF1 @ 8 μg/mL) was 16 µg/mL. For the same molecule, the “MIC ATB in combination” value ([1]; ECL UFR85, AF1 @ 4 μg/mL) was 8 µg/mL, the “MIC ATB in combination” value ([1]; ECL UFR85, AF1 @ 8 μg/mL) was 0.5 µg/mL and the “MIC ATB in combination” value ([1]; ECL UFR194, AF1 @ 4 μg/mL) was 1 µg/mL. The “MIC ATB in combination” value ([1]; ECL UFR194, AF1 @ 8 μg/mL) was 2 µg/mL, the “MIC ATB in combination” value ([1]; ECL UFR200, AF1 @ 4 μg/mL) was 1 µg/mL and the “MIC ATB in combination” value ([1]; ECL UFR200, AF1 @ 8 μg/mL) was 0.5 µg/mL. For the same molecule, the MIC ([1]; ATB alone, strain ECL UFR197 (TEM-1, CTX-M-15, OXA-1, OXA-48)) was over 128 µg/mL, the MIC ([1]; ATB alone, strain ECL UFR198 (TEM-1, SHV-12, CTX-M-15, DHA-1, OXA-1, OXA-48)) was over 128 µg/mL and the MIC ([1]; ATB combined with CLA @ 4 μg/ml, strain ECL UFR197 (TEM-1, CTX-M-15, OXA-1, OXA-48), read-out: MIC) was 128 µg/mL. For the same molecule, the MIC ([1]; ATB combined with CLA @ 4 μg/ml, strain ECL UFR198 (TEM-1, SHV-12, CTX-M-15, DHA-1, OXA-1, OXA-48)) was over 128 µg/mL, the MIC ([1]; strain ECL 2185D (OXA-163), ATB alone) was over 128 µg/mL and the MIC ([1]; strain ECL 2185D (OXA-163), CLA @ 4 μg/ml+ ATB) was over 128 µg/mL. For the same molecule, the MIC ([1]; strain ECL 190310 (AmpC), ATB alone) was over 128 µg/mL, the MIC ([1]; strain ECL 190310 (AmpC), CLA @ 4 μg/ml+ ATB) was over 128 µg/mL and the MIC ([1]; strain ECL 190408 (TEM-1, CTX-M-15, OXA-1), ATB alone) was 512 µg/mL. For the same molecule, the MIC ([1]; strain ECL 190408 (TEM-1, CTX-M-15, OXA-1), CLA @ 4 μg/ml+ ATB, read-out: MIC) was 128 µg/mL, the MIC ([1]; strain ECL 200138 (AmpC), ATB alone) was over 128 µg/mL and the MIC ([1]; strain ECL 200138 (AmpC), CLA @ 4 μg/ml+ ATB) was over 128 µg/mL. For the same molecule, the MIC ([1]; strain ECL 200322 (TEM-1, CTX-M-15, OXA-1), ATB alone) was over 128 µg/mL, the MIC ([1]; strain ECL 260033 (AmpC), ATB alone) was over 128 µg/mL and the MIC ([1]; strain ECL 260033 (AmpC), CLA @ 4 μg/ml+ ATB) was over 128 µg/mL. For the same molecule, the MIC ([1]; strain ECL 260253 (TEM-1, KPC-3), ATB alone) was over 128 µg/mL, the MIC ([1]; strain ECL 260253 (TEM-1, KPC-3), CLA @ 4 μg/ml+ ATB, read-out: MIC) was 64 µg/mL and the MIC ([1]; strain ECL 260323 (AmpC), ATB alone) was over 128 µg/mL. It also gave an MIC ([1]; strain ECL 260323 (AmpC), CLA @ 4 μg/ml+ ATB) of over 128 µg/mL, an MIC ([1]; strain ECL 260508 (TEM-1, CTX-M-15), ATB alone) of over 128 µg/mL and an MIC ([1]; strain ECL 260508 (TEM-1, CTX-M-15), CLA @ 4 μg/ml+ ATB) of 32 µg/mL. It also gave an MIC ([1]; strain ECL NEM146383 (AmpC), ATB alone) of over 128 µg/mL, an MIC ([1]; strain ECL NEM146383 (AmpC), CLA @ 4 μg/ml+ ATB) of over 128 µg/mL and an MIC ([1]; strain ECL P99 (AmpC), ATB alone) of over 128 µg/mL. The MIC ([1]; strain ECL P99 (AmpC), CLA @ 4 μg/ml+ ATB) was over 128 µg/mL, the MIC ([1]; strain ECL UFR12 (CTX-M-9, OXA-48), ATB alone) was 16 µg/mL and the MIC ([1]; strain ECL UFR12 (CTX-M-9, OXA-48), CLA @ 4 μg/ml+ ATB) was 8 µg/mL. The MIC ([1]; strain ECL UFR13 (TEM-1, SHV-12, CTX-M-9, OXA-48), ATB alone) was over 128 µg/mL, the MIC ([1]; strain ECL UFR13 (TEM-1, SHV-12, CTX-M-9, OXA-48), CLA @ 4 μg/ml+ ATB, read-out: MIC) was 128 µg/mL and the MIC ([1]; strain ECL UFR14 (TEM-1, SHV-12, CTX-M-15, DHA-1, OXA-1, OXA-48), ATB alone) was over 128 µg/mL. It also gave an MIC ([1]; strain ECL UFR14 (TEM-1, SHV-12, CTX-M-15, DHA-1, OXA-1, OXA-48), CLA @ 4 μg/ml+ ATB) of over 128 µg/mL, an MIC ([1]; strain ECL UFR60 (TEM-1, CTX-M-15, KPC-2), ATB alone) of over 128 µg/mL and an MIC ([1]; strain ECL UFR60 (TEM-1, CTX-M-15, KPC-2), CLA @ 4 μg/ml+ ATB, read-out: MIC) of 128 µg/mL. The MIC ([1]; strain ECL UFR70 (TEM-1, CTX-M-15, CMY-2, OXA-1, Porin loss), ATB alone) was over 128 µg/mL, the MIC ([1]; strain ECL UFR70 (TEM-1, CTX-M-15, CMY-2, OXA-1, Porin loss), CLA @ 4 μg/ml+ ATB) was over 128 µg/mL and the MIC ([1]; strain ECL UFR84 (TEM-1, AmpC, OXA-1), ATB alone) was over 128 µg/mL. It also gave an MIC ([1]; strain ECL UFR84 (TEM-1, AmpC, OXA-1), CLA @ 4 μg/ml+ ATB) of over 128 µg/mL, an MIC ([1]; strain ECL UFR85 (TEM-1, CTX-M-15, AmpC), ATB alone) of over 128 µg/mL and an MIC ([1]; strain ECL UFR85 (TEM-1, CTX-M-15, AmpC), CLA @ 4 μg/ml+ ATB) of over 128 µg/mL. It also gave an MIC ([1]; strain ECL UFR194 (OXA-48), ATB alone) of 4 µg/mL, an MIC ([1]; strain ECL UFR194 (OXA-48), CLA @ 4 μg/ml+ ATB) of 8 µg/mL and an MIC ([1]; strain ECL UFR195 (TEM-1, CTX-M-15, OXA-1, OXA-48), ATB alone) of over 128 µg/mL. The MIC ([1]; strain ECL UFR195 (TEM-1, CTX-M-15, OXA-1, OXA-48), CLA @ 4 μg/ml+ ATB) was over 128 µg/mL, the MIC ([1]; strain ECL UFR196 (TEM-1, CTX-M-15, OXA-1, OXA-48), ATB alone) was over 128 µg/mL and the MIC ([1]; strain ECL UFR196 (TEM-1, CTX-M-15, OXA-1, OXA-48), CLA @ 4 μg/ml+ ATB) was over 128 µg/mL. For the same molecule, the MIC ([1]; strain ECL UFR200 (TEM-1, SHV-12, KPC-2), ATB alone) was over 128 µg/mL, the MIC ([1]; strain ECL UFR200 (TEM-1, SHV-12, KPC-2), CLA @ 4 μg/ml+ ATB) was 16 µg/mL and the “MIC ATB in combination” value ([1]; strain ECL UFR195, antibacterial combined with AF1 @ 4 μg/mL) was 4 µg/mL. The “MIC ATB in combination” value ([1]; strain ECL UFR195, antibacterial combined with AF1 @ 8 μg/mL) was “<=0.25 μg/mL”, the “MIC ATB in combination” value ([1]; strain ECL UFR196, antibacterial combined with AF1 @ 4 μg/mL) was 16 µg/mL and the “MIC ATB in combination” value ([1]; strain ECL UFR196, antibacterial combined with AF1 @ 8 μg/mL) was 4 µg/mL. The “MIC ATB in combination” value ([1]; strain ECL UFR197, antibacterial combined with AF1 @ 4 μg/mL) was 16 µg/mL, the “MIC ATB in combination” value ([1]; strain ECL UFR197, antibacterial combined with AF1 @ 8 μg/mL) was 1 µg/mL and the “MIC ATB in combination” value ([1]; strain ECL UFR198, antibacterial combined with AF1 @ 4 μg/mL) was 64 µg/mL. The “MIC ATB in combination” value ([1]; strain ECL UFR198, antibacterial combined with AF1 @ 8 μg/mL) was 64 µg/mL, the “MIC ATB in combination” value [2] was over 128 µg/mL and the “MIC ATB in combination” value ([2]; ECO 4133, AF1 @ 4 μg/mL) was “<=0.25 μg/mL”. The “MIC ATB in combination” value ([2]; ECO 4133, AF1 @ 8 μg/mL) was “<=0.25 μg/mL” and the “MIC ATB in combination” value ([2]; ECO 5302, AF1 @ 4 μg/mL) was “<=0.25 μg/mL”.
